Consider one compound from US20190133997A1, “ARTEMISININ ANALOG, AND USE, METHOD, AND COMPOSITION FOR PROMOTING LIPID CATABOLISM AND IMPROVING SUGAR METABOLISM” (FUDAN UNIVERSITY, priority 2016, published 2019).

The test system of one data set is BMP4-directed C3H10T1/2. In words: Artemisinin and analogues on BMP4-directed C3H10T1/2 (morphology, Western blot). As to conditions: concentration shown in FIG. 8, from Day 0 of differentiation; vs control. It is filed as cell-based. As for the experimental part: 4.3.1 Culture and Differentiation of C3H10T1/2 According to Method 2.4.1.
Artemisinin, artesunate and dihydroartemisinin were stored in DMSO at a storage concentration of 10 mMol/L. The concentration shown in FIG. 8 was added on Day 0 of differentiation. Fresh medium was replaced every two days, and the corresponding concentrations of compounds were added until the cells differentiated to mature.
The method for extracting C3H10T1/2 cell total protein was the same as 2.4.3;
Western blot method and catalog number of antibody was the same as 2.4.4.
(Immunoblotting shows a protein as a band on a membrane.)

For another data set, the system named is ob/ob mice. Nature of the data set: Intraperitoneal artemether, fatty liver in diabetic ob/ob mice. The format is in vivo, Male ob/ob mice. The settings on record: intraperitoneal 20 mg/kg twice a week, eight weeks. As for the experimental part:
Ob/ob mice were breeded in the SPF animal laboratory of the Laboratory Animal Center of Fudan University at a room temperature of 21° C.-23° C. with a 12-hour light/dark cycle. When the mice were grown to 4-week old, they were randomly divided into a control group and an administration group, with 4 mice in each group. Mice in administration group were injected intraperitoneally with artemether. Artemether for intraperitoneal injection was stored at 4° C. in coconut oil at a storage concentration of 6 mg/ml (20 mMol/L), and protected from light. Ob/ob mice in administration group were injected with artemether at a dose of 20 mg/kg weight. Administration was twice a week for eight weeks. The mice were sacrificed by cervical dislocation, and liver tissues of mice were removed, fixed and paraffin embedded. The histological analysis was commissioned by Shanghai Saige Biotech Co., Ltd.

Data set [1] is described as follows: Intraperitoneal artemether, glucose metabolism in healthy lean mice. As to conditions: intraperitoneal 20 mg/kg twice a week, eight weeks. It is filed as in vivo, Male C57BL/6J mice. Here is the method:
(§1) The mice were breeded in the SPF animal laboratory of the Laboratory Animal Center of Fudan University at a room temperature of 21° C.-23° C. with a 12-hour light/dark cycle. When the mice were grown to 8-week old, they were randomly divided into a control group and an administration group, with 8 mice in each group. Artemether for intraperitoneal injection was stored at 4° C. in coconut oil at a storage concentration of 6 mg/ml (20 mMol/L), and protected from light. Mice in administration group were injected with artemether at a dose of 20 mg/kg weight, and mice in control group were injected with 100 μl coconut oil. Administration was twice a week for eight weeks.
The mice were fasted for 12-16 hours and injected intraperitoneally with glucose injection at a dose of […]. At 0 min, 30 min, 60 min, 90 min, and 120 min after injection, blood was collected from the tail vein, and blood glucose was measured with OneTouch ExtraEasy glucometer and OneTouch ExtraEasy blood glucose test strips and the results were recorded.
(§2) Insulin was injected intraperitoneally at a dose of 0.75 U/kg weight. At 0 min, 15 min, 30 min, 45 min and 60 min after injection, blood was collected from the tail vein, and blood glucose was measured.

The subject of data set [2] is obese mice induced by high-fat diet. Nature of the data set: Intraperitoneal artemether, random blood glucose, glucose and insulin tolerance in high-fat diet obese mice. It is filed as in vivo, Male C57BL/6J mice. As to conditions: intraperitoneal 20 mg/kg twice a week, eight weeks. As for the experimental part: as §1, with “cycle. […]” for “cycle.”, “group. While the mice were fed with a high-fat diet, artemether was injected intraperitoneally.” for “group.”, “weight.” for “weight, and mice in control group were injected with 100 μl coconut oil.”
The mice were fasted for 12-16 hours and injected intraperitoneally with glucose injection at a dose of […]. At 0 min, 30 min, 60 min, 90 min, and 120 min after injection, blood was collected from the tail vein, and blood glucose was measured with OneTouch ExtraEasy glucometer and OneTouch ExtraEasy blood glucose test strips and the results were recorded.
as §2
The mice were anesthetized with 10% chloral hydrate and blood was taken from the orbit. The whole blood was centrifuged at 300 rpm for 5 min at 4° C. Serum was taken and the blood glucose levels were measured by automatic biochemical analyzer and calibrator for blood glucose Cfas and kit (Roche).

Data set [3] is described as follows: Intraperitoneal artemether, growth of healthy mice on normal diet. It is filed as in vivo, Male C57BL/6J mice. The settings on record: intraperitoneal 20 mg/kg twice a week, eight weeks, vs control. As for the experimental part:
as §1, with “group. Mice in administration group were injected intraperitoneally with artemether.” for “group.”, “weight. Mice” for “weight, and mice”, “weeks and the weight of the mice was recorded weekly.” for “weeks.”

Data set [4] is described as follows: Intraperitoneal artemether 20 mg/kg, liver damage in healthy mice (HE staining). The format is in vivo, Male C57BL/6J mice. Here is the method: The mice were breeded in the SPF animal laboratory of the Laboratory Animal Center of Fudan University at a room temperature of 21° C.-23° C. with a 12-hour light/dark cycle. When the mice were grown to 8-week old, they were randomly divided into a control group and an administration group, with 8 mice in each group. Mice in administration group were injected intraperitoneally with artemether. Artemether for intraperitoneal injection was stored at 4° C. in coconut oil at a storage concentration of 6 mg/ml (20 mMol/L), and protected from light. Mice in administration group were injected with artemether at a dose of 20 mg/kg weight. Mice in control group were injected 100 μl coconut oil. Administration was twice a week for eight weeks. The mice were sacrificed by cervical dislocation, and liver tissues of mice were removed and fixed. Liver tissue fixation, paraffin embedding, sectioning and HE staining was commissioned by Shanghai Saige Biotech Co., Ltd.

SMILES strings stand for the structures.

In the case of `CO[C@H]1O[C@@H]2O[C@@]3(C)CC[C@H]4[C@H](C)CC[C@@H]([C@H]1C)[C@@]24OO3` [artemether], in the data set on BMP4-directed C3H10T1/2, the “cell morphology of C3H10T1/2” value is “exhibited brown adipocyte-like characteristics”. Moreover, the “fatty liver of ob/ob mice (HE staining)” value with ob/ob mice is listed as “significantly relieved”. Besides, in data set [1], the glucose tolerance curve entry is reported as “did not differ from that of mice in control group” and the insulin tolerance curve result is listed as “did not differ from that of mice in control group”. Also, in data set [2], the glucose tolerance entry is “significantly better than that of mice in control group”, the insulin sensitivity entry is “significantly better than that of mice in control group” and the random blood glucose entry is recorded as “significantly lower than that of mice in control group”. In data set [3], the “weight gain of healthy mice” value is “not significantly different” and the “weight of healthy mice” value is recorded as “no difference”. Also, the “morphology of liver cells” value in data set [4] (healthy lean mice, intraperitoneal 20 mg/kg twice a week, eight weeks) is “normal, and had no difference from that of mice in control group”. Moreover, the hepatotoxicity entry in data set [4] (intraperitoneal 20 mg/kg weight twice a week for eight weeks) is on record as “no hepatotoxicity”.
